Experimental data as given in patent US5691348A, “Pyridyl imidazole derivatives and processes for the preparation thereof” (Daewoo Electronics Co., Ltd., priority 1994, dated 1997).

System: angiotensin II receptor
Experiment: Angiotensin II receptor binding assay ([3H] angiotensin II)
Parameters: species or system rat (Sprague-Dawley adrenal cortex/medulla; Wistar liver)
Conditions: 25° C., 60 minutes, test concentration not given
Procedure: 1. Angiotensin II receptor binding assay
In accordance with the procedure disclosed in Chiu, A. T. et al., Eur. J. Pharm., 157, 13(1981), a ligand marked with a radioisotope was reacted with an angiotensin II receptor and the reactant was filtered with a glass fiber to remove unreacted ligand. After washing the filter, the amount of the remaining isotope was measured to determine the binding activity of the ligand, as described below in detail.
Sprague-Dawley rats and Wistar rats of 250 to 350 g (from The Korea Research Institute of Chemical Technology) were tested and the test procedures were carried out at 4° C., unless otherwise specified. Adrenal gland was separated from the Sprague-Dawley rats (liver, in the case of Wistar rats) into cortex and medulla. The separated adrenal cortex and medulla were washed with a sucrose buffer solution (0.2M sucrose, 1 mM EDTA, 10 mM Tris, Ph 7.2) and homogenized in the same buffer solution by using a Teflon pestle and a Brinkmann homogenizer. The homogenates were centrifuged at 3,000× g for 10 minutes to remove precipitates and further centrifuged at 12,000× g for 13 minutes. The final supernatants were centrifuged at 102,000× g for 1 hour to obtain precipitates, which were washed with a Tris buffer solution (50 mM Tris, 5 mM MgCl2, pH 7.2) and recentrifuged at 102,000× g for 1 hour. The resulting precipitates were immediately processed at the following step or stored at -70° C.
The precipitates were suspended in a Tris buffer solution. The amount of protein was determined by using a Bio-Rad DC protein analyzing kit and the protein concentration was adjusted to the amounts of: 0.2 to 0.3 mg/ml (Sprague-Dawley rat: adrenal cortex), 1.5 to 2.0 mg/ml (Sprague-Dawley rat: adrenal medulla), and 1.5 to 2.0 mg/ml (Wistar rat: liver). To the suspension, bovine serum albumin(BSA) was added to a concentration of 0.25 wt % and the resultant was immediately processed at the following step or stored at -70° C.
50 μl (based on ligand) of [^3 H] angiotensin II (NEN, NET-446) and 10 μl of each of the test compounds with various concentrations were added to the buffer solution (50 mM Tris (pH 7.2), 5 mM MgCl2, 0.25% BSA) to adjust the final volume to be 0.5 ml. 100 μl of the receptor suspension was added thereto and the resulting solution was reacted for 60 minutes while stirring in a water bath at 25° C. 3 ml of cold buffer solution for analysis was added to cease the reaction. The isotope which was bound to the receptor was isolated from the resultant by using Brandel Cell Harvester System with Whatman glass fiber GF/C. After washing the filter, the radioactivity of the filter was determined by using a liquid scintillation counter. Binding inhibition(%) of the test compound was calculated as follows:
Binding Inhibition(%)=[{(T-B)-(S-B)}/(T-B)]×100
wherein T is the radioactivity (cpm) of the reaction product untreated with the test compound, S is the radioactivity (cpm) of the reaction product treated with the test compound, and B is the radioactivity (cpm) of blank test.

CCCCc1nc2cc(-c3cccc[n+]3[O-])c(CO)nc2n1Cc1ccc(-c2ccccc2-c2nn[nH]n2)cc1 [Example 1, 2-Butyl-5-hydroxymethyl-6-(1-oxy-pyridin-2-yl)-3-[2'-(1H-tetrazol-5-yl)-biphenyl-4-ylmethyl]-3H-imidazo[4,5-b]pyridine]
Binding Inhibition: 85.4%
